In ChEMBL document CHEMBL3352328, “Synthesis and biological evaluation of a new series of N-acyldiamines as potential antibacterial and antifungal agents” (2014):
In brackets after ≈: the same amount, converted by molar mass. Activity calls are given as the source filed them. No cut-off for these calls is given here.

Legend:
[1] = test system: Candida parapsilosis; assay: Antifungal activity against Candida parapsilosis ATCC 22019 by broth microdilution method; format: functional; conditions: Lodderomyces parapsilosis
[2] = test system: Pseudomonas aeruginosa; assay: Antimicrobial activity against Pseudomonas aeruginosa ATCC 27853 by broth dilution method; format: functional
[3] = test system: Staphylococcus aureus; assay: Bactericidal activity against methicillin-resistant Staphylococcus aureus clinical isolate 8 after 24 hrs; format: functional; conditions: isolate 8, 24 h
[4] = test system: Staphylococcus aureus; assay: Bactericidal activity against methicillin-resistant Staphylococcus aureus clinical isolate 18 after 24 hrs; format: functional; conditions: isolate 18, 24 h
[5] = test system: Staphylococcus aureus; assay: Bactericidal activity against methicillin-resistant Staphylococcus aureus clinical isolate 6 after 24 hrs; format: functional; conditions: isolate 6, 24 h
[6] = test system: Escherichia coli; assay: Bactericidal activity against Escherichia coli ATCC 11229 after 24 hrs; format: functional; conditions: ATCC 11229, 24 h
[7] = test system: Staphylococcus aureus; assay: Bactericidal activity against methicillin-resistant Staphylococcus aureus clinical isolate 12 after 24 hrs; format: functional; conditions: isolate 12, 24 h
[8] = test system: Staphylococcus epidermidis; assay: Bactericidal activity against Staphylococcus epidermidis ATCC 12228 after 24 hrs; format: functional; conditions: ATCC 12228, 24 h
[9] = test system: Staphylococcus aureus; assay: Bactericidal activity against methicillin-resistant Staphylococcus aureus clinical isolate 15 after 24 hrs; format: functional; conditions: isolate 15, 24 h
[10] = test system: Staphylococcus aureus; assay: Bactericidal activity against methicillin-resistant Staphylococcus aureus clinical isolate 4 after 24 hrs; format: functional; conditions: isolate 4, 24 h
[11] = test system: Staphylococcus aureus; assay: Antimicrobial activity against Staphylococcus aureus ATCC 29213 by broth dilution method; format: functional
[12] = test system: Candida tropicalis; assay: Antifungal activity against Candida tropicalis ATCC 750 by broth microdilution method; format: functional
[13] = test system: Staphylococcus aureus; assay: Bactericidal activity against methicillin-resistant Staphylococcus aureus clinical isolate 9 after 24 hrs; format: functional; conditions: isolate 9, 24 h
[14] = test system: Escherichia coli; assay: Antimicrobial activity against Escherichia coli ATCC 11229 by broth dilution method; format: functional
[15] = test system: Staphylococcus aureus; assay: Bactericidal activity against methicillin-resistant Staphylococcus aureus clinical isolate 21 after 24 hrs; format: functional; conditions: isolate 21, 24 h
[16] = test system: Staphylococcus aureus; assay: Bactericidal activity against methicillin-resistant Staphylococcus aureus clinical isolate 2 after 24 hrs; format: functional; conditions: isolate 2, 24 h
[17] = test system: Staphylococcus aureus; assay: Bactericidal activity against methicillin-resistant Staphylococcus aureus clinical isolate 20 after 24 hrs; format: functional; conditions: isolate 20, 24 h
[18] = test system: Staphylococcus aureus; assay: Bactericidal activity against methicillin-resistant Staphylococcus aureus clinical isolate 17 after 24 hrs; format: functional; conditions: isolate 17, 24 h
[19] = test system: Staphylococcus aureus; assay: Bactericidal activity against methicillin-resistant Staphylococcus aureus clinical isolate 16 after 24 hrs; format: functional; conditions: isolate 16, 24 h
[20] = test system: Staphylococcus aureus; assay: Bactericidal activity against methicillin-resistant Staphylococcus aureus clinical isolate 13 after 24 hrs; format: functional; conditions: isolate 13, 24 h
[21] = test system: Pseudomonas aeruginosa; assay: Bactericidal activity against Pseudomonas aeruginosa ATCC 27853 after 24 hrs; format: functional; conditions: ATCC 27853, 24 h
[22] = test system: Staphylococcus aureus; assay: Bactericidal activity against methicillin-resistant Staphylococcus aureus clinical isolate 7 after 24 hrs; format: functional; conditions: isolate 7, 24 h
[23] = test system: Staphylococcus aureus; assay: Bactericidal activity against methicillin-resistant Staphylococcus aureus clinical isolate 10 after 24 hrs; format: functional; conditions: isolate 10, 24 h
[24] = test system: Staphylococcus aureus; assay: Bactericidal activity against methicillin-resistant Staphylococcus aureus clinical isolate 11 after 24 hrs; format: functional; conditions: isolate 11, 24 h
[25] = test system: Staphylococcus aureus; assay: Bactericidal activity against methicillin-resistant Staphylococcus aureus clinical isolate 5 after 24 hrs; format: functional; conditions: isolate 5, 24 h
[26] = test system: Staphylococcus aureus; assay: Bactericidal activity against methicillin-resistant Staphylococcus aureus clinical isolate 14 after 24 hrs; format: functional; conditions: isolate 14, 24 h
[27] = test system: Staphylococcus aureus; assay: Bactericidal activity against methicillin-resistant Staphylococcus aureus clinical isolate 1 after 24 hrs; format: functional; conditions: isolate 1, 24 h
[28] = test system: Nakaseomyces glabratus; assay: Antifungal activity against Candida glabrata ATCC 90030 by broth microdilution method; format: functional
[29] = test system: Staphylococcus aureus; assay: Bactericidal activity against methicillin-resistant Staphylococcus aureus clinical isolate 3 after 24 hrs; format: functional; conditions: isolate 3, 24 h
[30] = test system: Staphylococcus epidermidis; assay: Antimicrobial activity against Staphylococcus epidermidis ATCC 12228 by broth dilution method; format: functional
[31] = test system: Staphylococcus aureus; assay: Bactericidal activity against methicillin-resistant Staphylococcus aureus clinical isolate after 24 hrs; format: functional
[32] = test system: Candida albicans; assay: Antifungal activity against Candida albicans ATCC 18804 by broth microdilution method; format: functional
[33] = test system: Staphylococcus aureus; assay: Bactericidal activity against Staphylococcus aureus ATCC 29213 after 24 hrs; format: functional; conditions: ATCC 29213, 24 h
[34] = test system: Staphylococcus aureus; assay: Bactericidal activity against methicillin-resistant Staphylococcus aureus clinical isolate 19 after 24 hrs; format: functional; conditions: isolate 19, 24 h
[35] = test system: Pseudomonas aeruginosa; assay: Bacteriostatic activity against Pseudomonas aeruginosa ATCC 27853 after 24 hrs; format: functional, organism-based
[36] = test system: Escherichia coli; assay: Bacteriostatic activity against Escherichia coli ATCC 11229 after 24 hrs; format: functional, organism-based
[37] = test system: Staphylococcus epidermidis; assay: Bacteriostatic activity against Staphylococcus epidermidis ATCC 12228 after 24 hrs; format: functional, organism-based

| SMILES | MIC [1] | MIC [2] | MBC [4] | MBC [5] | MBC [9] | MBC [10] | MIC [11] | MIC [12] | MIC [14] | MBC [15] | MBC [16] | MBC [18] | MBC [23] | MBC [25] | MBC [26] | MIC [28] | MBC [29] | MIC [30] | MIC [32] | MBC [33] | other results |
| --- | --- | --- | --- | --- | --- | --- | --- | --- | --- | --- | --- | --- | --- | --- | --- | --- | --- | --- | --- | --- | --- |
| CCCCCCCCCCCC(=O)NCCN | 16 µg/mL (≈ 66 µM) | 8 µg/mL (≈ 33 µM) | 32 µg/mL (≈ 132 µM) | 32 µg/mL (≈ 132 µM) | 1020 µg/mL (≈ 4220 µM) | 256 µg/mL (≈ 1060 µM) | 16 µg/mL (≈ 66 µM) | 16 µg/mL (≈ 66 µM) | 8 µg/mL (≈ 33 µM) | > 1020 µg/mL | 256 µg/mL (≈ 1060 µM) | 256 µg/mL (≈ 1060 µM) | 32 µg/mL (≈ 132 µM) | 32 µg/mL (≈ 132 µM) | > 1020 µg/mL | 16 µg/mL (≈ 66 µM) | 1020 µg/mL (≈ 4220 µM) | 16 µg/mL (≈ 66 µM) | 128 µg/mL (≈ 528 µM) | 16 µg/mL (≈ 66 µM) | MBC [3]: 16 µg/mL (≈ 66 µM); MBC [6]: 16 µg/mL (≈ 66 µM); MBC [7]: > 1020 µg/mL; MBC [8]: 16 µg/mL (≈ 66 µM); MBC [13]: 32 µg/mL (≈ 132 µM); MBC [17]: 256 µg/mL (≈ 1060 µM); MBC [19]: 1020 µg/mL (≈ 4220 µM); MBC [20]: 32 µg/mL (≈ 132 µM); MBC [21]: 16 µg/mL (≈ 66 µM); MBC [22]: 32 µg/mL (≈ 132 µM); MBC [24]: > 1020 µg/mL; MBC [27]: 1020 µg/mL (≈ 4220 µM); MIC50 [31]: 32 µg/mL (≈ 132 µM); MIC90 [31]: > 1020 µg/mL; MBC [34]: 128 µg/mL (≈ 528 µM) |
| CN[C@H](CC(C)C)C(=O)N[C@H]1C(=O)N[C@@H](CC(N)=O)C(=O)N[C@H]2C(=O)N[C@H]3C(=O)N[C@H](C(=O)N[C@H](C(=O)O)c4cc(O)cc(O)c4-c4cc3ccc4O)[C@H](O)c3ccc(c(Cl)c3)Oc3cc2cc(c3O[C@@H]2O[C@H](CO)[C@@H](O)[C@H](O)[C@H]2O[C@H]2C[C@](C)(N)[C@H](O)[C@H](C)O2)Oc2ccc(cc2Cl)[C@H]1O [VANCOMYCIN] | – | – | 1 µg/mL (≈ 0.69 µM) | 1 µg/mL (≈ 0.69 µM) | 1 µg/mL (≈ 0.69 µM) | 1 µg/mL (≈ 0.69 µM) | – | – | – | 0.5 µg/mL (≈ 0.345 µM) | 1 µg/mL (≈ 0.69 µM) | 0.5 µg/mL (≈ 0.345 µM) | 1 µg/mL (≈ 0.69 µM) | 1 µg/mL (≈ 0.69 µM) | 1 µg/mL (≈ 0.69 µM) | – | 0.5 µg/mL (≈ 0.345 µM) | – | – | – | MBC [3]: 0.5 µg/mL (≈ 0.345 µM); MBC [7]: 1 µg/mL (≈ 0.69 µM); MBC [13]: 1 µg/mL (≈ 0.69 µM); MBC [17]: 0.5 µg/mL (≈ 0.345 µM); MBC [19]: 1 µg/mL (≈ 0.69 µM); MBC [20]: 1 µg/mL (≈ 0.69 µM); MBC [22]: 1 µg/mL (≈ 0.69 µM); MBC [24]: 1 µg/mL (≈ 0.69 µM); MBC [27]: 1 µg/mL (≈ 0.69 µM); MBC [34]: 0.5 µg/mL (≈ 0.345 µM) |
| CCCCCCCCCCCCCC(=O)NCCN | 32 µg/mL (≈ 118 µM) | 1020 µg/mL (≈ 3790 µM) | 128 µg/mL (≈ 473 µM) | 512 µg/mL (≈ 1890 µM) | 64 µg/mL (≈ 237 µM) | 512 µg/mL (≈ 1890 µM) | 8 µg/mL (≈ 29.6 µM) | 16 µg/mL (≈ 59.2 µM) | 64 µg/mL (≈ 237 µM) | 128 µg/mL (≈ 473 µM) | 512 µg/mL (≈ 1890 µM) | 128 µg/mL (≈ 473 µM) | 512 µg/mL (≈ 1890 µM) | 512 µg/mL (≈ 1890 µM) | 128 µg/mL (≈ 473 µM) | 16 µg/mL (≈ 59.2 µM) | 512 µg/mL (≈ 1890 µM) | 16 µg/mL (≈ 59.2 µM) | 4 µg/mL (≈ 14.8 µM) | 128 µg/mL (≈ 473 µM) | Activity [35]: Active; Activity [36]: Active; Activity [37]: Active; MIC50 [31]: 32 µg/mL (≈ 118 µM); MIC90 [31]: 256 µg/mL (≈ 947 µM) |
| CCCCCCCCCCCCCC(=O)NCCCCN | 128 µg/mL (≈ 429 µM) | 1020 µg/mL (≈ 3430 µM) | – | – | – | – | 16 µg/mL (≈ 53.6 µM) | 64 µg/mL (≈ 214 µM) | 256 µg/mL (≈ 858 µM) | – | – | – | – | – | – | 32 µg/mL (≈ 107 µM) | – | 16 µg/mL (≈ 53.6 µM) | 16 µg/mL (≈ 53.6 µM) | 1020 µg/mL (≈ 3430 µM) | MBC [6]: 1020 µg/mL (≈ 3430 µM); MBC [8]: 32 µg/mL (≈ 107 µM); MBC [21]: 1020 µg/mL (≈ 3430 µM) |
